Assay results published in paper PMC5382279, “Glutaredoxin catalysis requires two distinct glutathione interaction sites” (Nature Communications, 2017).
Values joined by “and” are separate entries in the source; they are usually repeats but may differ in a detail not shown here. Identical values can stand only once. Numbered stars: 1 amine (or outer) side, 2 acyl side, 3 side chain; on linkers, the order of the positions; unused ones are H or OH. Square brackets hold non-standard residues; d marks the D form. Peptide text beside a SMILES is read from it. γGlu = O=C(O)[C@H](CCC(=O)[*:2])N[*:1]; Abu = CC[C@H](N)C(=O)O

Columns and labels:
ScGrx7 [1] = biological target: T1, ScGrx7 (Saccharomyces cerevisiae, UniProt P38068, E170K); test: coupled NADPH/glutathione reductase assay, […] nm, GSSCys assay; assay type: biochemical; details: varied GSSCys 25-200 uM at fixed GSH 0.05-1.0 mM; 0.1 M Tris/HCl, 1 mM EDTA, pH 8.0, 25 C; ping-pong
T1 construct: gene GRX7; N-terminal MRGS(H)6 tag kept, E. coli XL1-Blue, pQE30/SCGRX7 double stop-codon construct
T1 sequence (P38068 33-203 E170K): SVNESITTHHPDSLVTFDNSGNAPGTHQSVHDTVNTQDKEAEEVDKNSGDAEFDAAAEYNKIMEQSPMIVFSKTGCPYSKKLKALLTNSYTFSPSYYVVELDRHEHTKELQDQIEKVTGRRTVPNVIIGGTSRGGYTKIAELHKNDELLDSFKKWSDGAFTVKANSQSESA

ScGrx7 [2] = biological target: T2, ScGrx7 (Saccharomyces cerevisiae, UniProt P38068, K105A); test: as above; assay type: biochemical; details: varied GSSCys 25-200 uM at fixed GSH 0.05-1.0 mM; 0.1 M Tris/HCl, 1 mM EDTA, pH 8.0, 25 C; ping-pong
T2 construct: gene GRX7; N-terminal MRGS(H)6 tag kept, E. coli XL1-Blue, pQE30/SCGRX7 double stop-codon construct
T2 sequence (P38068 33-203 K105A): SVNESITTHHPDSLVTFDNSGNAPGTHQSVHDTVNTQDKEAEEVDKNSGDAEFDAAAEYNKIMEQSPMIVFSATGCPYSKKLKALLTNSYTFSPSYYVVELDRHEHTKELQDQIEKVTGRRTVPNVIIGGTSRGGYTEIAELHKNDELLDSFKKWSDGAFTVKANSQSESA

ScGrx7 [3] = biological target: T3, ScGrx7 (Saccharomyces cerevisiae, UniProt P38068); test: as above; assay type: biochemical; details: varied GSSCys 25-200 uM at fixed GSH 0.05-1.0 mM; 0.1 M Tris/HCl, 1 mM EDTA, pH 8.0, 25 C; ping-pong
T3 construct: gene GRX7; N-terminal MRGS(H)6 tag kept, E. coli XL1-Blue, pQE30/SCGRX7 double stop-codon construct
T3 sequence (P38068 33-203): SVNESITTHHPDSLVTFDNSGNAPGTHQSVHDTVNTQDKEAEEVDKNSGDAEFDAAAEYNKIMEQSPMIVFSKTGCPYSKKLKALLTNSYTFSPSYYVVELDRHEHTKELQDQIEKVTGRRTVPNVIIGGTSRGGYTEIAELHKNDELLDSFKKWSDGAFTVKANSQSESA

ScGrx7 [4] = biological target: T4, ScGrx7 (Saccharomyces cerevisiae, UniProt P38068, K105E); test: as above; assay type: biochemical; details: varied GSSCys 25-200 uM at fixed GSH 0.05-1.0 mM; 0.1 M Tris/HCl, 1 mM EDTA, pH 8.0, 25 C; ping-pong
T4 construct: gene GRX7; N-terminal MRGS(H)6 tag kept, E. coli XL1-Blue, pQE30/SCGRX7 double stop-codon construct
T4 sequence (P38068 33-203 K105E): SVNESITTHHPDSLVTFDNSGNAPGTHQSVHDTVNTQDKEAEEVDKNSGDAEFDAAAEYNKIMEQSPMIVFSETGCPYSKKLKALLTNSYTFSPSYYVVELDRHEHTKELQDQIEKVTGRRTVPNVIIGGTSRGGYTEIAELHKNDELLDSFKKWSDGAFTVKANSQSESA

ScGrx7 [5] = biological target: T5, ScGrx7 (Saccharomyces cerevisiae, UniProt P38068, E170A); test: as above; assay type: biochemical; details: varied GSSCys 25-200 uM at fixed GSH 0.05-1.0 mM; 0.1 M Tris/HCl, 1 mM EDTA, pH 8.0, 25 C; ping-pong
T5 construct: gene GRX7; N-terminal MRGS(H)6 tag kept, E. coli XL1-Blue, pQE30/SCGRX7 double stop-codon construct
T5 sequence (P38068 33-203 E170A): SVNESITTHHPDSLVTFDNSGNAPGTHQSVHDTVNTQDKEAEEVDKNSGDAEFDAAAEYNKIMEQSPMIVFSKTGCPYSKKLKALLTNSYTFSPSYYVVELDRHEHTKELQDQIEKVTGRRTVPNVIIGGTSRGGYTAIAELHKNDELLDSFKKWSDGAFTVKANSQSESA

ScGrx7 [6] = biological target: T3, ScGrx7; test: coupled NADPH/glutathione reductase assay, […] nm, HEDS assay; assay type: biochemical; details: varied HEDS 90-920 uM at fixed GSH 0.3-1.5 mM; 0.1 M Tris/HCl, 1 mM EDTA, pH 8.0, 25 C; sequential pattern
ScGrx7 [7] = biological target: T3, ScGrx7; test: inhibition of HEDS or GSSEtOH assay; assay type: biochemical; details: up to 10 mM inhibitor; weak competitive inhibitor; HEDS or GSSEtOH as disulfide substrate with GSH
[8] = substrate: OCCSSCCO; test: purified protein, by the assay type; set-up: HEDS oxidoreductase assay, glutathione reductase coupled, NADPH consumption at 340 nm, pH 8.0, 25 °C; details: pH 8.0; 25.0 °C
Procedure: (§1) Both assays were performed with 0.1 mM NADPH and 1 U ml^−1 GR. Final concentrations of K105X and E170X mutants were 10 nM to 1.5 μM and 5–20 nM, respectively. Final concentrations of DM, D90A and K26A were 5–10 nM, 5–12.5 nM and 50–100 nM, respectively. […] NADPH, GSH and GR were mixed in assay buffer before Grx was added and a baseline was recorded for 30 s. […] For the HEDS assays, either GSH was varied between 100 μM and 1.5 mM for ScGrx (or 250 μM and 3.0 mM for PfGrx) at fixed concentrations of HEDS (0.18, 0.37, 0.55 and 0.74 mM) or HEDS was varied between 90 and 920 μM at fixed concentrations of GSH (0.3, 0.5, 1 and 1.5 mM for ScGrx7 or 0.25, 0.5, 1 and 2 mM for PfGrx). NADPH, GSH and HEDS were preincubated in assay buffer for 2 min before GR was added and a baseline was recorded for 30 s. All HEDS assays were started by the addition of enzyme. Kinetic data were analysed in Excel and SigmaPlot 12 by non-linear and linear regression according to Michaelis–Menten, Lineweaver–Burk, Eadie–Hofstee and Hanes theory[11][12][18]. […] All data points are the mean ± S.D. from at least three independent replicates and were averaged from at least three independent protein purification experiments and subsequently plotted and fitted in Sigmaplot 12.5 according to Michaelis-Menten, Lineweaver-Burk, Eadie-Hofstee and Hanes theory (the latter two plots are not shown). […] All data points are the mean ± S.D. from at least three independent replicates and were averaged from at least three independent protein purification experiments and subsequently plotted and fitted in Sigmaplot 12.5 according to Michaelis-Menten, Lineweaver-Burk, Eadie-Hofstee and Hanes theory (the latter two plots are not shown).

[9] = substrate: N[C@@H](CCC(=O)N[C@@H](CS)C(=O)NCC(=O)O)C(=O)O; test: purified protein, by the assay type; set-up: HEDS oxidoreductase assay, glutathione reductase coupled, NADPH consumption at 340 nm, pH 8.0, 25 °C; details: pH 8.0; 25.0 °C
Procedure: as §1

[10] = substrate: OCCSSCCO; test: purified protein, by the assay type; set-up: HEDS assay, GR-coupled NADPH consumption at 340 nm, steady-state kinetics; details: pH 8.0; 25.0 °C
Procedure: (§2) Both assays were performed with 0.1 mM NADPH and 1 U ml^−1 GR. Final concentrations of K105X and E170X mutants were 10 nM to 1.5 μM and 5–20 nM, respectively. Final concentrations of DM, D90A and K26A were 5–10 nM, 5–12.5 nM and 50–100 nM, respectively. […] NADPH, GSH and GR were mixed in assay buffer before Grx was added and a baseline was recorded for 30 s. […] For the HEDS assays, either GSH was varied between 100 μM and 1.5 mM for ScGrx (or 250 μM and 3.0 mM for PfGrx) at fixed concentrations of HEDS (0.18, 0.37, 0.55 and 0.74 mM) or HEDS was varied between 90 and 920 μM at fixed concentrations of GSH (0.3, 0.5, 1 and 1.5 mM for ScGrx7 or 0.25, 0.5, 1 and 2 mM for PfGrx). NADPH, GSH and HEDS were preincubated in assay buffer for 2 min before GR was added and a baseline was recorded for 30 s. All HEDS assays were started by the addition of enzyme. Kinetic data were analysed in Excel and SigmaPlot 12 by non-linear and linear regression according to Michaelis–Menten, Lineweaver–Burk, Eadie–Hofstee and Hanes theory[11][12][18]. […] All data points are the mean ± S.D. from at least three independent replicates and were averaged from at least three independent protein purification experiments and subsequently plotted and fitted in Sigmaplot 12.5 according to Michaelis-Menten, Lineweaver-Burk, Eadie-Hofstee and Hanes theory (the latter two plots are not shown).

[11] = substrate: N[C@@H](CCC(=O)N[C@@H](CS)C(=O)NCC(=O)O)C(=O)O; test: purified protein, by the assay type; set-up: HEDS assay, GR-coupled NADPH consumption at 340 nm, steady-state kinetics; details: pH 8.0; 25.0 °C
Procedure: as §2

What does the source list for `N[C@@H](CCC(=O)N[C@@H](CSSC[C@H](N)C(=O)O)C(=O)NCC(=O)O)C(=O)O` [GSSCys]?
Km app (ScGrx7 [1]): Km ^app values for GSSCys and GSH were reciprocally doubled and halved, respectively; Km app (ScGrx7 [2]): all K105X mutants had increased Km ^app(GSSCys) values; Km app (ScGrx7 [3]): Selected kcat ^app and Km ^app values of ScGrx7 wild-type enzyme and K105X mutants; Km app (ScGrx7 [4]): all K105X mutants had increased Km ^app(GSSCys) values; Km app (ScGrx7 [5]): Km ^app values for GSSCys and GSH were reciprocally doubled and halved, respectively

`OCCSSCCO` [HEDS] was tested. Which Km app (ScGrx7 [6]) did it give?
The Km app was “Selected kcat ^app and Km ^app values of ScGrx7 wild-type enzyme and K105X mutants”.

For `CC[C@H](NC(=O)CC[C@H](N)C(=O)O)C(=O)NCC(=O)O` [ophthalmic acid, L-γ-glutamyl-L-α-aminobutyrylglycine] (γGlu-[Abu]-Gly-OH), which “% reduction of reaction velocity at up to 10 mM” value (ScGrx7 [7]) is on record?
The value was 10–20%.

B1: ScGrx7 (Saccharomyces cerevisiae S288C) (protein)
chain: SVNESITTHHPDSLVTFDNSGNAPGTHQSVHDTVNTQDKEAEEVDKNSGDAEFDAAAEYNKIMEQSPMIVFSKTGCPYSKKLKALLTNSYTFSPSYYVVELDRHEHTKELQDQIEKVTGRRTVPNVIIGGTSRGGYTEIAELHKNDELLDSFKKWSDGAFTVKANSQSESA
notes: N-terminal MRGS(H)6 tag kept, E. coli XL1-Blue, pQE30/SCGRX7 double stop-codon construct
B1 was tested. Which Km [8] did it give?
Its Km is 2300 ± 700 µM and 1500 ± 200 µM.

What about the Km [9] of the same molecule?
The Km was 1200 ± 100 µM and 2300 ± 500 µM.

What about the Km [10] of the same molecule?
Its Km is 2050 ± 200 µM and 1820 ± 300 µM and 3720 ± 1100 µM.

And the Km [11]?
Its Km is 1210 ± 200 µM and 1230 ± 150 µM and 1120 ± 110 µM.
